According to patent US20230348442A1, “GALECTIN-3 INHIBITING 2-HYDROXYCYCLOALKANE-1-CARBAMOYL DERIVATIVES” (Idorsia Pharmaceuticals Ltd, priority 2020, published 2023):

Biological target: human Gal-3 (hGal-3) (Homo sapiens (Human), UniProt P17931)
Test: competitive binding assay: binding of biotinylated hGal-3 to microplate-adsorbed asialofetuin (ASF), spectrophotometric
Details: Activity on hGal-3; mean values of several measurements
In short: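 For hGal-1, a variant with all six cysteines replaced by serines is preferred. Either galectin, biotinylated at 300-1000 ng/mL, competes with compound for microplate-bound ASF over 3 h at 4° C; peroxidase/ABTS detection gives IC50, averaged.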

Chain of human Gal-3 (hGal-3) (P17931 whole entry): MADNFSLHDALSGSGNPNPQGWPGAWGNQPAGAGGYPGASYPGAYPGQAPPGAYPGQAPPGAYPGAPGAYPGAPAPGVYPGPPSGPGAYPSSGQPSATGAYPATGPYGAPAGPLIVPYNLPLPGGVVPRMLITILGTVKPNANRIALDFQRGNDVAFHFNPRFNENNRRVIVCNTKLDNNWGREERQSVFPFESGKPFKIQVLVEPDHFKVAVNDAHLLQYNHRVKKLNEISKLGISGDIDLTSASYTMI

Row | SMILES | IC50
1 | CO[C@@H]1[C@@H](n2cc(-c3ccc(Cl)c(F)c3F)nn2)[C@@H](O)[C@@H](CO)O[C@H]1C(=O)N(c1cc(Br)cc(C#N)c1)[C@H]1CCC[C@@H]1O [Example 1.14.5, (2R,3R,4S,5R,6R)-N-(3-bromo-5-cyanophenyl)-4-(4-(4-chloro-2,3-difluorophenyl)-1H-1,2,3-triazol-1-yl)-5-hydroxy-N-((1S,2S)-2-hydroxycyclopentyl)-6-(hydroxymethyl)-3-methoxytetrahydro-2H-pyran-2-carboxamide] | 17.4 nM
2 | CO[C@@H]1[C@@H](n2cc(-c3cc(F)c(Br)c(F)c3)nn2)[C@@H](O)[C@@H](CO)O[C@H]1C(=O)N(c1cc(Cl)cc(C#N)c1)[C@H]1CCC[C@@H]1O [Example 1.6.4, (2R,3R,4S,5R,6R)-4-(4-(4-bromo-3,5-difluorophenyl)-1H-1,2,3-triazol-1-yl)-N-(3-chloro-5-cyanophenyl)-5-hydroxy-N-((1S,2S)-2-hydroxycyclopentyl)-6-(hydroxymethyl)-3-methoxytetrahydro-2H-pyran-2-carboxamide] | 28.6 nM
3 | CO[C@@H]1[C@@H](n2cc(-c3cc(F)cc(F)c3)nn2)[C@@H](O)[C@@H](CO)O[C@H]1C(=O)N(c1cc(Br)cc(C#N)c1)[C@H]1CCC[C@@H]1O [Example 1.2.5, (2R,3R,4S,5R,6R)-N-(3-bromo-5-cyanophenyl)-4-(4-(3,5-difluorophenyl)-1H-1,2,3-triazol-1-yl)-5-hydroxy-N-((1S,2S)-2-hydroxycyclopentyl)-6-(hydroxymethyl)-3-methoxytetrahydro-2H-pyran-2-carboxamide] | 146 nM
4 | CO[C@@H]1[C@@H](n2cc(-c3cc(F)c(F)c(F)c3)nn2)[C@@H](O)[C@@H](CO)O[C@H]1C(=O)N(c1cccc(I)c1)[C@H]1CC[C@@H]1O [Example 2.1.6, (2R,3R,4S,5R,6R)-5-hydroxy-N-((1S,2S)-2-hydroxycyclobutyl)-6-(hydroxymethyl)-N-(3-iodophenyl)-3-methoxy-4-(4-(3,4,5-trifluorophenyl)-1H-1,2,3-triazol-1-yl)tetrahydro-2H-pyran-2-carboxamide] | 196 nM
5 | CO[C@@H]1[C@@H](n2cc(-c3ccc(Cl)c(F)c3F)nn2)[C@@H](O)[C@@H](CO)O[C@H]1C(=O)N(c1cc(Cl)cc(C#N)c1)[C@H]1CCC[C@@H]1O [Example 1.14.4, (2R,3R,4S,5R,6R)-4-(4-(4-chloro-2,3-difluorophenyl)-1H-1,2,3-triazol-1-yl)-N-(3-chloro-5-cyanophenyl)-5-hydroxy-N-((1S,2S)-2-hydroxycyclopentyl)-6-(hydroxymethyl)-3-methoxytetrahydro-2H-pyran-2-carboxamide] | 12.5 nM
6 | CO[C@@H]1[C@@H](n2cc(-c3cc(F)c(C)c(F)c3)nn2)[C@@H](O)[C@@H](CO)O[C@H]1C(=O)N(c1cc(Br)cc(C#N)c1)[C@H]1CCC[C@@H]1O [Example 1.4.5, (2R,3R,4S,5R,6R)-N-(3-bromo-5-cyanophenyl)-4-(4-(3,5-difluoro-4-methylphenyl)-1H-1,2,3-triazol-1-yl)-5-hydroxy-N-((1S,2S)-2-hydroxycyclopentyl)-6-(hydroxymethyl)-3-methoxytetrahydro-2H-pyran-2-carboxamide] | 16.9 nM
7 | CO[C@@H]1[C@@H](n2cc(-c3cc(F)c(F)c(F)c3)nn2)[C@@H](O)[C@@H](CO)O[C@H]1C(=O)N(c1cc(C)cc(Br)c1)[C@@H]1CC[C@H]1O [Example 2.1.12R, (2R,3R,4S,5R,6R)-N-(3-bromo-5-methylphenyl)-5-hydroxy-N-((1R,2R)-2-hydroxycyclobutyl)-6-(hydroxymethyl)-3-methoxy-4-(4-(3,4,5-trifluorophenyl)-1H-1,2,3-triazol-1-yl)tetrahydro-2H-pyran-2-carboxamide] | 220 nM
8 | CO[C@@H]1[C@@H](n2cc(-c3ccc(Br)c(F)c3F)nn2)[C@@H](O)[C@@H](CO)O[C@H]1C(=O)N(c1cc(Br)cc(C#N)c1)[C@H]1CC[C@@H]1O [Example 2.12.5, (2R,3R,4S,5R,6R)-4-(4-(4-bromo-2,3-difluorophenyl)-1H-1,2,3-triazol-1-yl)-N-(3-bromo-5-cyanophenyl)-5-hydroxy-N-((1S,2S)-2-hydroxycyclobutyl)-6-(hydroxymethyl)-3-methoxytetrahydro-2H-pyran-2-carboxamide] | 25.9 nM
9 | Cc1c(F)cc(-c2cn([C@H]3[C@@H](O)[C@@H](CO)O[C@@H](C(=O)N(c4cc(Cl)cc(Cl)c4)[C@H]4CCC[C@@H]4O)[C@@H]3O)nn2)cc1F [Example 1H.4.2, (2R,3R,4S,5R,6R)-N-(3,5-dichlorophenyl)-4-(4-(3,5-difluoro-4-methylphenyl)-1H-1,2,3-triazol-1-yl)-3,5-dihydroxy-N-((1S,2S)-2-hydroxycyclopentyl)-6-(hydroxymethyl)tetrahydro-2H-pyran-2-carboxamide] | 22.7 nM
10 | CO[C@@H]1[C@@H](n2cc(-c3cc(F)c(F)c(F)c3)nn2)[C@@H](O)[C@@H](CO)O[C@H]1C(=O)N(c1cc(Br)cc(Br)c1)[C@H]1CCC[C@@H]1O [Example 1.1.11, (2R,3R,4S,5R,6R)-N-(3,5-dibromophenyl)-5-hydroxy-N-((1S,2S)-2-hydroxycyclopentyl)-6-(hydroxymethyl)-3-methoxy-4-(4-(3,4,5-trifluorophenyl)-1H-1,2,3-triazol-1-yl)tetrahydro-2H-pyran-2-carboxamide] | 31 nM
11 | CO[C@@H]1[C@@H](n2cc(-c3cc(F)cc(Br)c3)nn2)[C@@H](O)[C@@H](CO)O[C@H]1C(=O)N(c1cc(C)cc(C#N)c1)[C@H]1CC[C@@H]1O [Example 2.10.8, (2R,3R,4S,5R,6R)-4-(4-(3-bromo-5-fluorophenyl)-1H-1,2,3-triazol-1-yl)-N-(3-cyano-5-methylphenyl)-5-hydroxy-N-((1S,2S)-2-hydroxycyclobutyl)-6-(hydroxymethyl)-3-methoxytetrahydro-2H-pyran-2-carboxamide] | 232 nM
12 | CO[C@@H]1[C@@H](n2cc(-c3cc(F)c(C)c(F)c3)nn2)[C@@H](O)[C@@H](CO)O[C@H]1C(=O)N(c1cc(Cl)cc(Cl)c1)[C@@H]1CC[C@H]1O [Example 2.4.2R, (2R,3R,4S,5R,6R)-N-(3,5-dichlorophenyl)-4-(4-(3,5-difluoro-4-methylphenyl)-1H-1,2,3-triazol-1-yl)-5-hydroxy-N-((1R,2R)-2-hydroxycyclobutyl)-6-(hydroxymethyl)-3-methoxytetrahydro-2H-pyran-2-carboxamide] | 134 nM
13 | CO[C@@H]1[C@@H](n2cc(-c3cc(F)c(F)c(Cl)c3)nn2)[C@@H](O)[C@@H](CO)O[C@H]1C(=O)N(c1cc(Cl)cc(C#N)c1)[C@H]1CC[C@@H]1O [Example 2.7.4, (2R,3R,4S,5R,6R)-4-(4-(3-chloro-4,5-difluorophenyl)-1H-1,2,3-triazol-1-yl)-N-(3-chloro-5-cyanophenyl)-5-hydroxy-N-((1S,2S)-2-hydroxycyclobutyl)-6-(hydroxymethyl)-3-methoxytetrahydro-2H-pyran-2-carboxamide] | 78.6 nM
14 | CO[C@@H]1[C@@H](n2cc(-c3cc(F)c(Cl)c(Cl)c3)nn2)[C@@H](O)[C@@H](CO)O[C@H]1C(=O)N(c1cc(Cl)cc(C#N)c1)[C@H]1CCC[C@@H]1O [Example 1.17.4, (2R,3R,4S,5R,6R)-N-(3-chloro-5-cyanophenyl)-4-(4-(3,4-dichloro-5-fluorophenyl)-1H-1,2,3-triazol-1-yl)-5-hydroxy-N-((1S,2S)-2-hydroxycyclopentyl)-6-(hydroxymethyl)-3-methoxytetrahydro-2H-pyran-2-carboxamide] | 29.7 nM
15 | CO[C@@H]1[C@@H](n2cc(-c3ccc(C)c(F)c3F)nn2)[C@@H](O)[C@@H](CO)O[C@H]1C(=O)N(c1cc(Cl)cc(Cl)c1)[C@H]1CC[C@@H]1O [Example 2.11.2, (2R,3R,4S,5R,6R)-N-(3,5-dichlorophenyl)-4-(4-(2,3-difluoro-4-methylphenyl)-1H-1,2,3-triazol-1-yl)-5-hydroxy-N-((1S,2S)-2-hydroxycyclobutyl)-6-(hydroxymethyl)-3-methoxytetrahydro-2H-pyran-2-carboxamide] | 42.7 nM
16 | CO[C@@H]1[C@@H](n2cc(-c3cc(F)c(F)c(F)c3)nn2)[C@@H](O)[C@@H](CO)O[C@H]1C(=O)N(c1cccc(I)c1)[C@@H]1CC[C@H]1O [Example 2.1.6R, (2R,3R,4S,5R,6R)-5-hydroxy-N-((1R,2R)-2-hydroxycyclobutyl)-6-(hydroxymethyl)-N-(3-iodophenyl)-3-methoxy-4-(4-(3,4,5-trifluorophenyl)-1H-1,2,3-triazol-1-yl)tetrahydro-2H-pyran-2-carboxamide] | 232 nM
17 | CO[C@@H]1[C@@H](n2cc(-c3cc(F)c(F)c(Cl)c3)nn2)[C@@H](O)[C@@H](CO)O[C@H]1C(=O)N(c1cc(Br)cc(C#N)c1)[C@@H]1CC[C@H]1O [Example 2.7.5R, (2R,3R,4S,5R,6R)-N-(3-bromo-5-cyanophenyl)-4-(4-(3-chloro-4,5-difluorophenyl)-1H-1,2,3-triazol-1-yl)-5-hydroxy-N-((1R,2R)-2-hydroxycyclobutyl)-6-(hydroxymethyl)-3-methoxytetrahydro-2H-pyran-2-carboxamide] | 232 nM
18 | CO[C@@H]1[C@@H](n2cc(-c3cc(F)c(F)c(F)c3)nn2)[C@@H](O)[C@@H](CO)O[C@H]1C(=O)N(c1cc(Cl)cc(C#N)c1)[C@H]1CC[C@@H]1O [Example 2.1.4, (2R,3R,4S,5R,6R)-N-(3-chloro-5-cyanophenyl)-5-hydroxy-N-((1S,2S)-2-hydroxycyclobutyl)-6-(hydroxymethyl)-3-methoxy-4-(4-(3,4,5-trifluorophenyl)-1H-1,2,3-triazol-1-yl)tetrahydro-2H-pyran-2-carboxamide] | 78.8 nM
19 | CO[C@@H]1[C@@H](n2cc(-c3cc(F)c(C)c(F)c3)nn2)[C@@H](O)[C@@H](CO)O[C@H]1C(=O)N(c1cc(Cl)cc(C#N)c1)[C@H]1CCC[C@@H]1O [Example 1.4.4, (2R,3R,4S,5R,6R)-N-(3-chloro-5-cyanophenyl)-4-(4-(3,5-difluoro-4-methylphenyl)-1H-1,2,3-triazol-1-yl)-5-hydroxy-N-((1S,2S)-2-hydroxycyclopentyl)-6-(hydroxymethyl)-3-methoxytetrahydro-2H-pyran-2-carboxamide] | 17.3 nM
